Numbers after ± are expanded uncertainties.
Test: xn = mol fraction of the nth substance listed
Conditions: 96.7 kPa, Liquid; for mass density: Vibrating tube method; for viscosity: Capillary tube (Ostwald / Ubbelohde) method

What does the source list for `CCCCCCn1cc[n+](C)c1.[Cl-]` [1-hexyl-3-methylimidazolium chloride] + CC(=O)N(C)C?
mass density (328.15 K, x1 = 0.155): 947.22 ± 2.2 kg/m3; mass density (328.15 K, x1 = 0.301): 971.59 ± 2.2 kg/m3; mass density (328.15 K, x1 = 0.392): 982.65 ± 2.1 kg/m3; mass density (328.15 K, x1 = 0.503): 993.19 ± 2.1 kg/m3; mass density (328.15 K, x1 = 0.63): 1003.22 ± 2.2 kg/m3; mass density (328.15 K, x1 = 0.794): 1012.63 ± 2.2 kg/m3; mass density (328.15 K, x1 = 0.887): 1017.33 ± 2.2 kg/m3; mass density (328.15 K, x1 = 1): 1021.92 ± 2.2 kg/m3; viscosity (333.15 K, x1 = 0.155): 2.091 ± 0.32 mPa·s; viscosity (333.15 K, x1 = 0.301): 6.213 ± 0.95 mPa·s; viscosity (333.15 K, x1 = 0.392): 12.02 ± 1.8 mPa·s; viscosity (333.15 K, x1 = 0.503): 24.45 ± 3.8 mPa·s; viscosity (333.15 K, x1 = 0.63): 57.41 ± 8.8 mPa·s; viscosity (333.15 K, x1 = 0.794): 130.32 ± 20 mPa·s; viscosity (333.15 K, x1 = 0.887): 291.17 ± 45 mPa·s; viscosity (333.15 K, x1 = 1): 453.59 ± 70 mPa·s; mass density (333.15 K, x1 = 0.155): 943.5 ± 2.2 kg/m3; mass density (333.15 K, x1 = 0.301): 967.98 ± 2.2 kg/m3; mass density (333.15 K, x1 = 0.392): 979.22 ± 2.1 kg/m3; mass density (333.15 K, x1 = 0.503): 989.93 ± 2.1 kg/m3; mass density (333.15 K, x1 = 0.63): 1000.11 ± 2.2 kg/m3; mass density (333.15 K, x1 = 0.794): 1009.73 ± 2.2 kg/m3; mass density (333.15 K, x1 = 0.887): 1014.53 ± 2.2 kg/m3; mass density (333.15 K, x1 = 1): 1019.13 ± 2.2 kg/m3; viscosity (338.15 K, x1 = 0.155): 1.931 ± 0.3 mPa·s; viscosity (338.15 K, x1 = 0.301): 5.522 ± 0.84 mPa·s; viscosity (338.15 K, x1 = 0.392): 10.41 ± 1.6 mPa·s; viscosity (338.15 K, x1 = 0.503): 20.82 ± 3.2 mPa·s; viscosity (338.15 K, x1 = 0.63): 46.28 ± 7 mPa·s; viscosity (338.15 K, x1 = 0.794): 101.08 ± 15 mPa·s; viscosity (338.15 K, x1 = 0.887): 216.49 ± 33 mPa·s; viscosity (338.15 K, x1 = 1): 327.52 ± 50 mPa·s; mass density (338.15 K, x1 = 0.155): 939.77 ± 2.2 kg/m3; mass density (338.15 K, x1 = 0.301): 964.37 ± 2.1 kg/m3; mass density (338.15 K, x1 = 0.392): 975.8 ± 2.1 kg/m3; mass density (338.15 K, x1 = 0.503): 986.68 ± 2.1 kg/m3; mass density (338.15 K, x1 = 0.63): 997.03 ± 2.1 kg/m3; mass density (338.15 K, x1 = 0.794): 1006.85 ± 2.2 kg/m3; mass density (338.15 K, x1 = 0.887): 1011.76 ± 2.2 kg/m3; mass density (338.15 K, x1 = 1): 1016.38 ± 2.2 kg/m3; viscosity (343.15 K, x1 = 0.155): 1.786 ± 0.28 mPa·s; viscosity (343.15 K, x1 = 0.301): 4.918 ± 0.75 mPa·s; viscosity (343.15 K, x1 = 0.392): 9.14 ± 1.4 mPa·s; viscosity (343.15 K, x1 = 0.503): 17.42 ± 2.7 mPa·s; viscosity (343.15 K, x1 = 0.63): 37.9 ± 5.8 mPa·s; viscosity (343.15 K, x1 = 0.794): 79.83 ± 12 mPa·s; viscosity (343.15 K, x1 = 0.887): 163.62 ± 25 mPa·s; viscosity (343.15 K, x1 = 1): 243.04 ± 37 mPa·s; mass density (343.15 K, x1 = 0.155): 935.94 ± 2.2 kg/m3; mass density (343.15 K, x1 = 0.301): 960.77 ± 2.1 kg/m3; mass density (343.15 K, x1 = 0.392): 972.39 ± 2.1 kg/m3; mass density (343.15 K, x1 = 0.503): 983.44 ± 2.1 kg/m3; mass density (343.15 K, x1 = 0.63): 993.95 ± 2.1 kg/m3; mass density (343.15 K, x1 = 0.794): 1003.99 ± 2.2 kg/m3; mass density (343.15 K, x1 = 0.887): 1009.01 ± 2.2 kg/m3; mass density (343.15 K, x1 = 1): 1013.65 ± 2.2 kg/m3; viscosity (348.15 K, x1 = 0.155): 1.658 ± 0.26 mPa·s; viscosity (348.15 K, x1 = 0.301): 4.443 ± 0.68 mPa·s; viscosity (348.15 K, x1 = 0.392): 8.018 ± 1.2 mPa·s; viscosity (348.15 K, x1 = 0.503): 14.93 ± 2.3 mPa·s; viscosity (348.15 K, x1 = 0.63): 31.38 ± 4.8 mPa·s; viscosity (348.15 K, x1 = 0.794): 63.75 ± 9.7 mPa·s; viscosity (348.15 K, x1 = 0.887): 125.96 ± 19 mPa·s; viscosity (348.15 K, x1 = 1): 183.45 ± 28 mPa·s; mass density (348.15 K, x1 = 0.155): 932.05 ± 2.2 kg/m3; mass density (348.15 K, x1 = 0.301): 957.18 ± 2.1 kg/m3; mass density (348.15 K, x1 = 0.392): 968.98 ± 2.1 kg/m3; mass density (348.15 K, x1 = 0.503): 980.22 ± 2.1 kg/m3; mass density (348.15 K, x1 = 0.63): 990.89 ± 2.1 kg/m3; mass density (348.15 K, x1 = 0.794): 1001.15 ± 2.2 kg/m3; mass density (348.15 K, x1 = 0.887): 1006.28 ± 2.2 kg/m3; mass density (348.15 K, x1 = 1): 1010.91 ± 2.2 kg/m3; viscosity (353.15 K, x1 = 0.155): 1.542 ± 0.24 mPa·s; viscosity (353.15 K, x1 = 0.301): 4.015 ± 0.61 mPa·s; viscosity (353.15 K, x1 = 0.392): 7.115 ± 1.1 mPa·s; viscosity (353.15 K, x1 = 0.503): 12.86 ± 2 mPa·s; viscosity (353.15 K, x1 = 0.63): 26.46 ± 4 mPa·s; viscosity (353.15 K, x1 = 0.794): 51.4 ± 7.8 mPa·s; viscosity (353.15 K, x1 = 0.887): 98.54 ± 15 mPa·s; viscosity (353.15 K, x1 = 1): 140.06 ± 21 mPa·s; mass density (353.15 K, x1 = 0.155): 928.09 ± 2.2 kg/m3; mass density (353.15 K, x1 = 0.301): 953.59 ± 2.1 kg/m3; mass density (353.15 K, x1 = 0.392): 965.58 ± 2.1 kg/m3; mass density (353.15 K, x1 = 0.503): 977 ± 2.1 kg/m3; mass density (353.15 K, x1 = 0.63): 987.84 ± 2.1 kg/m3; mass density (353.15 K, x1 = 0.794): 998.33 ± 2.1 kg/m3; mass density (353.15 K, x1 = 0.887): 1003.57 ± 2.2 kg/m3; mass density (353.15 K, x1 = 1): 1008.18 ± 2.2 kg/m3
